Results on eleven compounds are retold here after patent publication US20070141661A1, “Cell extract for high-functioned cell-free protein synthesis and method of preparing the extract” (priority 2003, published 2007).

In test [1] the test system is wheat embryo cell-free protein synthesis. Description: Wheat embryo cell-free protein synthesis, batch method, 14C-leucine incorporation with DHFR mRNA. The format is biochemical. To be noted: for Inhibition of protein synthesis, nucleotide added alone: 0.5 mM AMP or 0.25 mM GMP alone, not shown in figures; for Effect of standard sugar on protein synthesis: final concentration 0.5 mM, FIG. 2C; for Effect on protein synthesis when added back in an equivalent amount to highly functionalized protein synthesis solution: filtrate or components isolated from filtrate, FIG. 1B/2B; for Time until protein synthesis reaction terminated after adding back: filtrate or filtrate-derived component added in equivalent amount. As to the method:
To an embryo extract solution, components necessary for translation were added and adjusted to prepare a translation reaction solution (30 mM HEPES-KOH, pH7.8, 100 mM potassium acetate, 2.7 mM magnesium acetate, 1.2 mM ATP, 0.25 mM GTP, 0.4 mM spermidine, 16 mM phosphocreatine, 40 μg/ml creatine kinase, 4 mM dithiothreitol, each 0.3 mM 19 kinds of leucine-lacking L-amino acids, and 0.005% sodium azide). The concentration of the embryo extract solution was 40 OD 260 nm per 1 ml of translation reaction solution). To this translation reaction solution, mRNA encoding dihydrofolate reductase (DHFR) (0.32 mg/ml) and ^14C-leucine were added, and protein synthesis was conducted at 26° C. through a batch method. The amount of synthesized protein was determined by measuring radioactivity of ^14C-labeled leucine incorporated into an acid-insoluble fraction as follows: a 3MM Whatman filter was blotted with […] of the reaction solution, and the filter was dipped into an ice-cold 10% TCA (trichloroacetic acid) for an hour, and then boiled in 5% TCA solution for 10 minutes. This filter was recovered and from which TCA and water were removed using ethanol and ether (50:50 vol), dried, and then radioactivity incorporated into a heat-TCA-insoluble fraction was measured by a liquid scintillation counter (toluene scintillator).
Using these embryo extracts, following the method described in Example 1, and under a condition where the concentration of extract solution was 40 OD 260 nm, protein synthesis was conducted and their synthesis activities were compared. The activities of protein synthesis were determined by measuring radioactivities of ^14C/5 μL reaction solution, wherein ^14C had been incorporated into a heat-acid-insoluble fraction after a three hour-long reaction. As gelfiltration operation proceeded, the concentration of glucose in an extract solution was decreased, and completely corresponding to that, the activity of protein synthesis was increased, and simultaneously an extremely stabilized reaction solution for protein synthesis was produced.

The subject of a further test is ATP in reaction solution. As to the kind of experiment: Temporal change of ATP concentration during protein synthesis reaction (cellulose thin layer chromatography, UV 260 nm). The format is biochemical, wheat. As to conditions: for Concentration of ATP in system after adding sugar: 0.5 mM, within an hour after reaction, data not shown. The method, then:
Next, to study the relation between decrease in concentration of ATP and the inhibition and destabilization mechanism of protein synthesis reaction, temporal changes of concentration of ATP under incubation was measured in the present and absence of glucose. Experiment was conducted on chromatography using a cellulose thin layer plate (Avicel: purchased from Funakoshi Co., Ltd) and a developing solvent of isobutyric acid:0.5 M ammonia (5:3). Using a synthesis system prepared with an extract solution treated through Amicon ultramembrane six times, protein synthesis reaction was conducted with or without adding glucose (1 mM), and to samples fractionated with time, an equivalent amount of cold ethanol was added, then supernatants obtained from centrifugation at 10,000×g were used to fractionate nucleotides on a thin layer plate. Using standard nucleotides from a conventional method as a fractionation marker, ATP was extracted from fractions, which was scraped out from fluorescent blots visualized with irradiation of ultraviolet ray, and the values of ultraviolet absorption at 260 nm were measured, thereby temporary changes of concentration of ATP in a reaction solution were determined. In an experiment where glucose was not added, as reaction proceeded, the concentration of ATP in the reaction solution was decreased (large ● in FIG. 3B) and in three hours after the reaction, decreased to around 60%. Kinetics of this decrease in concentration of ATP is well consistent with a decrease in the concentration of glucose (● in FIG. 3A). […] Though data are not shown, when protein synthesis reaction was conducted using an extract solution of 25 OD 260 nm, a decrease in the concentration of ATP was hardly shown until four hours after reaction, and along with it, the protein synthesis reaction was sustained linearly almost for four hours.

Test [2] concerns wheat embryo cell-free protein synthesis. Description: Stability of protein synthesis activity after 3 h preincubation at 26° C. without mRNA, then solution exchange. It is filed as biochemical. To be noted: 0.5 mM, no mRNA or 14C-leucine during incubation, FIG. 2C. As to the method: Next, destabilization of protein synthesis was further examined. Namely, samples obtained before and after Amicon ultra-centrifugal filtration as described above (but mRNA and ^14C-leucine had not been contained), were incubated for three hours at 26° C. (hereinafter, described as preincubation), and then both reaction solutions were respectively passed through Sephadex G25 spin column which had been equilibrated with a translation solution (containing amino acids, energy sources, various ions and buffer) for changing to a fresh translation solution, and after that, mRNA and ^14C-leucine were added to measure the activity of protein synthesis.
Next, to confirm the destabilization phenomena of protein synthesis system resulting from the addition glucose and preincubation, the system was incubated in the presence of 0.5 mM glucose (the system contained neither mRNA or ^14C-leucine) and the stability was examined in the same manner as explained in FIG. 1B.

For the compound `Nc1ncnc2c1ncn2[C@@H]1O[C@H](COP(=O)(O)O)[C@@H](O)[C@H]1O` [AMP], the “Inhibition of protein synthesis, nucleotide added alone” value in test [1] is recorded as “inhibition of protein synthesis was not exhibited”. As for `Nc1nc2c(ncn2[C@@H]2O[C@H](COP(=O)(O)O)[C@@H](O)[C@H]2O)c(=O)[nH]1` [GMP], the “Inhibition of protein synthesis, nucleotide added alone” value in test [1] was “inhibition of protein synthesis was not exhibited”. For the compound `O=C[C@@H](O)[C@H](O)[C@@H](O)[C@@H](O)CO` [L-glucose], the “Effect of standard sugar on protein synthesis” value (from here on “Effect of standard sugar”) in test [1] was “no inhibitory effects”. Moreover, in the test on ATP in reaction solution (1 mM added, FIG. 3B), the “ATP remained after adding sugar” value is on record as about 50%. With `C=C(OP(=O)(O)O)C(=O)O` [Phosphoenolpyruvic acid], the “Effect of standard sugar” value in test [1] is reported as “no inhibitory effects on protein synthesis”.

On to `O=C(CO)[C@@H](O)[C@H](O)[C@H](O)CO` [fructose], for which the “Effect of standard sugar” value in test [1] is given as “strong protein synthesis inhibitory effects”. In addition, in the test on ATP in reaction solution, the “Concentration of ATP in system after adding sugar” value is reported as “below the detection limit”. For `O=C[C@H](O)[C@@H](O)[C@@H](O)[C@H](O)CO` [galactose], in that order: “strong protein synthesis inhibitory effects” and “below the detection limit”.

On to `O=C[C@H](O)[C@@H](O)[C@H](O)[C@H](O)CO` [glucose, D-glucose], for which, in test [1], the “Effect on protein synthesis when added back in an equivalent amount to highly functionalized protein synthesis solution” value (shortened to “Effect on protein synthesis”) was “strong inhibitory and destabilization effects”; the “Time until protein synthesis reaction terminated after adding back” value was “two”; the “Effect of standard sugar” value is “strong protein synthesis inhibitory effects”. In addition, in test [2], the “Protein synthesis capacity after preincubation in the presence of sugar” value was “irreversibly inactivates a protein synthesis capacity”. For the same compound, the “ATP in the reaction solution after adding sugar” value in the test on ATP in reaction solution (1 mM added, in an hour, FIG. 3B) is “almost all ATP in the reaction solution was consumed”. In the case of `O=C[C@H](O)[C@@H](O)[C@H](O)[C@H](O)COP(=O)(O)O` [glucose-6-phosphate], in test [1], the “Effect of standard sugar” value is reported as “strong protein synthesis inhibitory effects”. For the compound `CC(=O)C(=O)O` [pyruvic acid], the “Effect of standard sugar” value in test [1] is recorded as “no inhibitory effects on protein synthesis”.

Regarding `OC[C@H]1O[C@H](OC[C@H]2O[C@H](O[C@]3(CO)O[C@H](CO)[C@@H](O)[C@@H]3O)[C@H](O)[C@@H](O)[C@@H]2O)[C@H](O)[C@@H](O)[C@H]1O` [raffinose], the “Effect on protein synthesis” value in test [1] is on record as “did not show inhibitory effects”. In the case of `OC[C@H]1O[C@@](CO)(O[C@H]2O[C@H](CO)[C@@H](O)[C@H](O)[C@H]2O)[C@@H](O)[C@@H]1O` [sucrose], in test [1], the “Effect on protein synthesis” value is “strong inhibitory and destabilization effects”; the “Time until protein synthesis reaction terminated after adding back” value was “two”; the “Effect of standard sugar” value is given as “strong protein synthesis inhibitory effects”. In addition, the “Concentration of ATP in system after adding sugar” value in the test on ATP in reaction solution is given as “below the detection limit”.
